Reference: patent US11046743B2 (Antaros Medical AB, priority 2015, dated 2021)

Experiment: Chemical stability in buffer, UPLC purity
Format: physicochemical

Substance | Purity after 7 days (pH 4.6, 4° C.) [%] | Purity after 14 days (pH 4.6, 4° C.) [%] | Purity after 7 days (pH 4.6, 25° C.) [%] | Purity after 14 days (pH 4.6, 25° C.) [%] | Purity after 7 days (pH 4.6, 40° C.) [%] | Purity after 14 days (pH 4.6, 40° C.) [%] | Purity after 7 days (pH 7.4, 4° C.) [%] | Purity after 14 days (pH 7.4, 4° C.) [%] | Purity after 7 days (pH 7.4, 25° C.) [%] | Purity after 14 days (pH 7.4, 25° C.) [%] | Purity after 7 days (pH 7.4, 40° C.) [%] | Purity after 14 days (pH 7.4, 40° C.) [%]
Tza-S-Q-G-T-F-T-S-D-I-S-K-Q-Nle-ESRRAQEFIEWLLATGPESGAPPPSC(VS-DO3A(Ga))-NH2 [SEQ ID NO 36] | 100 | 99 | 99 | 97 | 94 | 84 | 97 | 94 | 81 | 67 | 47 | 33
Tza-S-Q-G-T-F-T-S-D-I-S-K-Q-Nle-ESRRAQEFIEWLLATGPESGAPPPSC(VS-DO3A)-NH2 [SEQ ID NO 35] | 100 | 99 | 97 | 97 | 92 | 91 | 98 | 96 | 90 | 84 | 64 | 53
Tza-SQGTFTSDYSKQLDEQRAQEFIEWLLATGPESGAPPPSC(VS-DO3A(Ga))-NH2 [SEQ ID NO 50] | 100 | 99 | 99 | 97 | 94 | 84 | 97 | 94 | 81 | 67 | 47 | 33
Tza-SQGTFTSDYSKQLDEQRAQEFIEWLLATGPESGAPPPSC(VS-DO3A)-NH2 [SEQ ID NO 49] | 100 | 99 | 97 | 97 | 92 | 91 | 98 | 96 | 90 | 84 | 64 | 53
Tza-SQGTFTSDYSKQLESRRAQEFIEWLLAGGPESGAPPPSC(VS-DO3A(Ga))-NH2 [SEQ ID NO 8] | 100 | 99 | 99 | 97 | 94 | 84 | 97 | 94 | 81 | 67 | 47 | 33
Tza-SQGTFTSDYSKQLESRRAQEFIEWLLAGGPESGAPPPSC(VS-DO3A)-NH2 [SEQ ID NO 6] | 100 | 99 | 97 | 97 | 92 | 91 | 98 | 96 | 90 | 84 | 64 | 53
